Assays:
[1] = Chronic allograft nephropathy diagnosis in renal transplant patients (protocol biopsies, Banff 97); details: EVR co-administration
Experimental: Protocol biopsies were performed and graded according to the Banff 97 classification.[29]

[2] = MPA pharmacokinetics in renal transplant patients on MMF (plasma HPLC-UV, Bayesian estimation of AUC); type: in vivo, human; details: for AUC(0-t) / Cmax: human, plasma; for AUC(0-t): MPA AUC(0–12); for Patients with MPA AUC outside the therapeutic window range: range 30–60 h mg/L
Text: Anonymized medical records of 404 patients receiving immunosuppressant therapy after renal transplantation hospitalized at Limoges University Hospital (France) during the study period from 2011 to 2012 were reviewed. […] The patients were excluded if they received immunosuppression with other medicaments and underwent transplantation of other organs.
All patients received prednisolone orally by standard hospital practice.
According to the MMF daily dose, the study patients were allocated into the 3 study groups: the low MMF dose group received 1000 mg per day (28 patients); medium MMF dose group, 2000 mg per day (54 patients); and high MMF dose group, 3000 mg per day (18 patients).
Blood samples were collected in EDTA tubes at 20 minutes, 1 and 3 hours after the administration of MMF. Plasma was separated by centrifugation. […] Blood serum (500 μL), an internal standard (50 μL) (thiopental in methanol 1 g/L diluted with deproteinized water to 25 mg/L), and calibrators were acidified with hydrochloric acid and extracted with dichloromethane (5 mL). […] The organic fraction was then evaporated to dryness under a stream of nitrogen. The dry residue was reconstituted with 100-μL elution solvent (KH2PO4 buffer/acetonitrile [70/30 v/v] at pH = 2.6). Then, the sample (40 μL) was injected into the HPLC system with a steel column Nucleosil C18, 5 μm (250 × 4.6 mm, id) and with UV detection at 300 nm.

[3] = Low-dose MMF group, 1000 mg/day, EVR group

## CO[C@H]1C[C@@H]2CC[C@@H](C)[C@@](O)(O2)C(=O)C(=O)N2CCCC[C@H]2C(=O)O[C@H]([C@H](C)C[C@@H]2CC[C@@H](OCCO)[C@H](OC)C2)CC(=O)[C@H](C)/C=C(\C)[C@@H](O)[C@@H](OC)C(=O)[C@H](C)C[C@H](C)/C=C/C=C/C=C/1C [EVR, everolimus]
[1]; high MMF dose group (2 of 4)
  Chronic allograft nephropathy diagnosed, patients: 50.0%
[1]; in total
  Chronic allograft nephropathy diagnosed, patients: 64.7%
[1]; low MMF dose group (7 of 9)
  Chronic allograft nephropathy diagnosed, patients: 77.8%
[1]; medium MMF dose group (2 of 4)
  Chronic allograft nephropathy diagnosed, patients: 50.0%

## COc1c(C)c2c(c(O)c1C/C=C(\C)CCC(=O)O)C(=O)OC2 [MPA, mycophenolic acid]
[2]; CsA 120–180 mg versus 240–300 mg
  MPA AUC lower in low CsA dose group versus high CsA dose group: approximately 33%
[2]; CsA + MMF group, all MMF doses (n = 83)
  MPA C0, mean ± SD (range): 1.00 ± 0.47 (0.00–2.00) mg/L
[2]; EVR + MMF group, all MMF doses (n = 17)
  MPA C0, mean ± SD (range): 2.58 ± 1.43 (0.68–4.98) mg/L
[2]; High-dose MMF group, 3000 mg/day, CsA group
  MPA C0, mean ± SD (range): 1.29 ± 0.47 (1.00–2.00) mg/L
[2]; High-dose MMF group, 3000 mg/day, EVR group
  MPA C0, mean ± SD (range): 3.19 ± 1.60 (1.41–4.89) mg/L
[2]; Low-dose MMF group, 1000 mg/day, CsA group
  MPA C0, mean ± SD (range): 0.58 ± 0.51 (0.00–1.00) mg/L
[2]; [3]
  MPA AUC(0–12), mean ± SD (range): 31.89 ± 8.43 (20.82–42.25) h mg/L
  MPA C0, mean ± SD (range): 1.61 ± 0.65 (0.68–2.24) mg/L
[2]; Medium-dose MMF group, 2000 mg/day, EVR group
  MPA C0, mean ± SD (range): 4.17 ± 0.78 (3.12–4.98) mg/L
[2]; mean ± SD (range), CsA + MMF group, all MMF doses (n = 83)
  AUC(0-t): 37900 ± 14100 ng·h/mL
[2]; mean ± SD (range), EVR + MMF group, all MMF doses (n = 17)
  AUC(0-t): 47000 ± 21900 ng·h/mL
[2]; mean ± SD (range), High-dose MMF group, 3000 mg/day, CsA group
  AUC(0-t): 44600 ± 14000 ng·h/mL
[2]; mean ± SD (range), High-dose MMF group, 3000 mg/day, EVR group
  AUC(0-t): 59500 ± 18300 ng·h/mL
[2]; mean ± SD (range), Low-dose MMF group, 1000 mg/day, CsA group
  AUC(0-t): 30600 ± 12700 ng·h/mL
[2]; mean ± SD (range), Medium-dose MMF group, 2000 mg/day, CsA group
  AUC(0-t): 38700 ± 13700 ng·h/mL
[2]; mean ± SD (range), Medium-dose MMF group, 2000 mg/day, EVR group
  AUC(0-t): 68700 ± 22700 ng·h/mL
[2]; mean ± SD, CsA + MMF, MMF 1000 mg/day, CsA 120–180 mg/day
  AUC(0-t): 28100 ± 11000 ng·h/mL
[2]; mean ± SD, CsA + MMF, MMF 1000 mg/day, CsA 180–240 mg/day
  AUC(0-t): 40500 ± 11000 ng·h/mL
[2]; mean ± SD, CsA + MMF, MMF 2000 mg/day, CsA 120–180 mg/day
  AUC(0-t): 28800 ± 11100 ng·h/mL
[2]; mean ± SD, CsA + MMF, MMF 2000 mg/day, CsA 180–240 mg/day
  AUC(0-t): 41800 ± 15600 ng·h/mL
[2]; mean ± SD, CsA + MMF, MMF 2000 mg/day, CsA 240–300 mg/day
  AUC(0-t): 43000 ± 6270 ng·h/mL
[2]; mean ± SD, CsA + MMF, MMF 3000 mg/day, CsA 120–180 mg/day
  AUC(0-t): 36200 ± 3700 ng·h/mL
[2]; mean ± SD, CsA + MMF, MMF 3000 mg/day, CsA 180–240 mg/day
  AUC(0-t): 43400 ± 13100 ng·h/mL
[2]; mean ± SD, CsA + MMF, MMF 3000 mg/day, CsA 240–300 mg/day
  AUC(0-t): 56800 ± 16800 ng·h/mL
[2]; MPA Cmax related to high-dose CsA, CsA >240 mg/day
  Cmax: > 10000 ng/mL
[2]; MPA Cmax, mean ± SD (range), CsA + MMF group, all MMF doses (n = 83)
  Cmax: 17600 ± 8510 ng/mL
[2]; MPA Cmax, mean ± SD (range), EVR + MMF group, all MMF doses (n = 17)
  Cmax: 14300 ± 6380 ng/mL
[2]; MPA Cmax, mean ± SD (range), High-dose MMF group, 3000 mg/day, CsA group
  Cmax: 21000 ± 7050 ng/mL
[2]; MPA Cmax, mean ± SD (range), Low-dose MMF group, 1000 mg/day, CsA group
  Cmax: 15500 ± 8930 ng/mL
[2]; MPA Cmax, mean ± SD (range), Low-dose MMF group, 1000 mg/day, EVR group
  Cmax: 10800 ± 4810 ng/mL
[2]; MPA Cmax, mean ± SD (range), Medium-dose MMF group, 2000 mg/day, CsA group
  Cmax: 17500 ± 8580 ng/mL
[2]; MPA Cmax, mean ± SD (range), Medium-dose MMF group, 2000 mg/day, EVR group
  Cmax: 17400 ± 7740 ng/mL
[2]; MPA Cmax, mean ± SD, CsA + MMF, MMF 1000 mg/day, CsA 120–180 mg/day
  Cmax: 12100 ± 5590 ng/mL
[2]; MPA Cmax, mean ± SD, CsA + MMF, MMF 1000 mg/day, CsA 180–240 mg/day
  Cmax: 22800 ± 10800 ng/mL
[2]; MPA Cmax, mean ± SD, CsA + MMF, MMF 2000 mg/day, CsA 120–180 mg/day
  Cmax: 13000 ± 6820 ng/mL
[2]; MPA Cmax, mean ± SD, CsA + MMF, MMF 2000 mg/day, CsA 180–240 mg/day
  Cmax: 17000 ± 8020 ng/mL
[2]; MPA Cmax, mean ± SD, CsA + MMF, MMF 2000 mg/day, CsA 240–300 mg/day
  Cmax: 22800 ± 8860 ng/mL
[2]; MPA Cmax, mean ± SD, CsA + MMF, MMF 3000 mg/day, CsA 120–180 mg/day
  Cmax: 19000 ± 5390 ng/mL
[2]; MPA Cmax, mean ± SD, CsA + MMF, MMF 3000 mg/day, CsA 180–240 mg/day
  Cmax: 22800 ± 8120 ng/mL
[2]; MPA Cmax, mean ± SD, CsA + MMF, MMF 3000 mg/day, CsA 240–300 mg/day
  Cmax: 21200 ± 8770 ng/mL
[2]; medium MMF dose (2000 mg)
  MPA AUC(0–12) higher with MMF + EVR than with MMF + CsA: 43%
[2]; MMF + CsA
  Patients with MPA AUC outside the therapeutic window range: 31.3%
[2]; MMF + EVR
  Patients with MPA AUC outside the therapeutic window range: 47.00%
[2]; all study patients
  Patients with MPA AUC outside the therapeutic window range: 34%
